Assay results reported in patent US4178442A, “Novel cinnamoyles piperazines and homopiperazines, the method of preparing them and their application in therapeutics” (Delalande S. A., priority 1977, dated 1979).
Read-outs that look alike come from different tables or passages of the source.

Tested on: anaesthetized dog
Assay: Antiangorous activity on anaesthetized dog: consumption of oxygen in the left ventricule and cardiac effort (KATZ's index)
Format: in vivo
Settings: for inhibition in vivo at 2.5 mg/kg / inhibition in vivo at 0.625 mg/kg / inhibition in vivo at […]: Canis lupus familiaris, iv; for inhibition in vivo at […]: 0.15 mg/kg i.v. slow perfusion
Protocol: The antiangorous activity was tested on an anaesthetized dog (sodium pentobarbital 30 mg/kg/i.v.).
The consumption of oxygen in the left ventricule was estimated by the product of the coronary venous flow and the coronary arteriovenous difference in oxygen (% volume).
The coronary venous flow was measured at the coronary venous sinus by means of a modified Morawitz cannula, introduced under radioscopic control.
The cardiac effort was estimated according to KATZ's index, by the product of the average arterial pressure and the cardiac frequency.
The cardiac frequency was estimated from the electrocardiogram recorded with D2 derivation.
It should be noted that the compounds tested were injected intravenously with slow perfusion.

[1] = 2.5 mg/kg i.v. slow perfusion, read-out: Diminution in consumption of O2
[2] = 2.5 mg/kg i.v. slow perfusion, read-out: Diminution in the cardiac effort (IK)
[3] = 0.625 mg/kg i.v. slow perfusion
[4] = read-out: Diminution in consumption of O2
[5] = read-out: Diminution in the cardiac effort (IK)

COc1cc(/C=C/C(=O)N2CCN(CCCOc3ccc(NC(C)=O)c4c3OCCO4)CC2)cc(OC)c1OC [771 172]
Diminution in consumption of O2: in time (2.5 mg/kg i.v. slow perfusion): 15 min | Diminution in the cardiac effort (IK): in time (2.5 mg/kg i.v. slow perfusion): 23 min | inhibition in vivo at 2.5 mg/kg [1]: 25% | inhibition in vivo at 2.5 mg/kg [2]: 29%

COc1cc(/C=C/C(=O)N2CCN(CC(O)COc3ccc(NC(C)=O)c4ccccc34)CC2)cc(OC)c1OC (centres unmarked) [771 036]
Diminution in the cardiac effort (IK): in time (2.5 mg/kg i.v. slow perfusion): 15 min | inhibition in vivo at 2.5 mg/kg [1]: 15% | inhibition in vivo at 2.5 mg/kg [2]: 25%

CNC(=O)Nc1cc(OC)c(OCC(O)CN2CCN(C(=O)/C=C/c3cc(OC)c(OC)c(OC)c3)CC2)c(OC)c1 (centres unmarked) [780 357]
Diminution in consumption of O2: in time (2.5 mg/kg i.v. slow perfusion): 15 min | Diminution in the cardiac effort (IK): in time (2.5 mg/kg i.v. slow perfusion): 15 min | inhibition in vivo at 2.5 mg/kg [1]: 43% | inhibition in vivo at 2.5 mg/kg [2]: 21%

COc1cc(/C=C/C(=O)N2CCN(CC(O)COc3ccc(C(=O)c4ccccc4)cc3)CC2)cc(OC)c1OC (centres unmarked) [771 318]
Diminution in consumption of O2: in time (2.5 mg/kg i.v. slow perfusion): 60 min | Diminution in the cardiac effort (IK): in time (2.5 mg/kg i.v. slow perfusion): 15 min | inhibition in vivo at 2.5 mg/kg [1]: 63% | inhibition in vivo at 2.5 mg/kg [2]: 31%

COc1cc(/C=C/C(=O)N2CCN(CC(O)COc3c(OC)cc(C(C)=O)cc3OC)CC2)cc(OC)c1OC (centres unmarked) [780 359]
Diminution in consumption of O2: in time [3]: 45 min | Diminution in the cardiac effort (IK): in time [3]: 30 min | inhibition in vivo at 0.625 mg/kg (0.625 mg/kg i.v. slow perfusion, read-out: Diminution in consumption of O2): 60% | inhibition in vivo at 0.625 mg/kg (0.625 mg/kg i.v. slow perfusion, read-out: Diminution in the cardiac effort (IK)): 32%

CCOC(=O)c1cc(OC)c(OCC(O)CN2CCN(C(=O)/C=C/c3cc(OC)c(OC)c(OC)c3)CC2)c(OC)c1 (centres unmarked) [780 361]
Diminution in consumption of O2: in time (2.5 mg/kg i.v. slow perfusion): 30 min | Diminution in the cardiac effort (IK): in time (2.5 mg/kg i.v. slow perfusion): 45 min | inhibition in vivo at 2.5 mg/kg [1]: 68% | inhibition in vivo at 2.5 mg/kg [2]: 38%

COc1cc(/C=C/C(=O)N2CCN(CC(O)CSc3ccc(C(C)=O)c4c3OCCO4)CC2)cc(OC)c1OC (centres unmarked) [780 384]
inhibition in vivo at […] [4]: 43% | inhibition in vivo at […] [5]: 25%

COc1cc(/C=C/C(=O)N2CCCN(CC(O)COc3ccc(NC(C)=O)c4c3OCCO4)CC2)cc(OC)c1OC (centres unmarked) [780 272]
Diminution in consumption of O2: in time (2.5 mg/kg i.v. slow perfusion): 90 min | Diminution in the cardiac effort (IK): in time (2.5 mg/kg i.v. slow perfusion): 90 min | inhibition in vivo at 2.5 mg/kg [1]: 40% | inhibition in vivo at 2.5 mg/kg [2]: 51%

COc1cc(/C=C/C(=O)N2CCN(CC(O)COc3ccc(C(C)=O)cc3Cl)CC2)cc(OC)c1OC (centres unmarked) [780 401]
Diminution in consumption of O2: in time (2.5 mg/kg i.v. slow perfusion): 30 min | inhibition in vivo at 2.5 mg/kg [1]: 64% | inhibition in vivo at 2.5 mg/kg [2]: 6%

CCCC(=O)c1ccc(OCC(O)CN2CCN(C(=O)/C=C/c3cc(OC)c(OC)c(OC)c3)CC2)cc1 (centres unmarked) [780 302]
Diminution in consumption of O2: in time (2.5 mg/kg i.v. slow perfusion): 30 min | Diminution in the cardiac effort (IK): in time (2.5 mg/kg i.v. slow perfusion): 30 min | inhibition in vivo at 2.5 mg/kg [1]: 46% | inhibition in vivo at 2.5 mg/kg [2]: 14%

COc1cc(/C=C/C(=O)N2CCN(CC(O)COc3ccc(NC(=O)N4CCOCC4)c4c3OCCO4)CC2)cc(OC)c1OC (centres unmarked) [771 149]
inhibition in vivo at […] [4]: 12% | inhibition in vivo at […] [5]: 14%

CNC(=O)Nc1ccc(OCC(O)CN2CCCN(C(=O)/C=C/c3cc(OC)c(OC)c(OC)c3)CC2)c2c1OCCO2 (centres unmarked) [780 374]
Diminution in consumption of O2: in time (2.5 mg/kg i.v. slow perfusion): 30 min | Diminution in the cardiac effort (IK): in time (2.5 mg/kg i.v. slow perfusion): 15 min | inhibition in vivo at 2.5 mg/kg [1]: 39% | inhibition in vivo at 2.5 mg/kg [2]: 31%

COc1cc(/C=C/C(=O)N2CCN(CC(O)COc3ccc(C(C)=O)c4c3OCCCO4)CC2)cc(OC)c1OC (centres unmarked) [780 241]
inhibition in vivo at […] [4]: 30% | inhibition in vivo at […] [5]: 13%

COc1cc(/C=C/C(=O)N2CCN(CC(O)COc3ccc(Cl)cc3C)CC2)cc(OC)c1OC (centres unmarked) [770 966]
Diminution in the cardiac effort (IK): in time (2.5 mg/kg i.v. slow perfusion): 30 min | inhibition in vivo at 2.5 mg/kg [1]: 7% | inhibition in vivo at 2.5 mg/kg [2]: 46%
